Where two headings read alike, the source gives them in different places.
Key:
[1] = Cytotoxicity by neutral red dye uptake in AVA5 cells; assay type: cell-based; settings: human, Genotype 1b replicon
[2] = tested on: HCV replication; assay: HCV replicon assay, 6 days total duration, NTZ monotherapy pre-treatment and combination therapy; assay type: cell-based; settings: Hepatitis C virus, 144 h, first named drug for combinations
Experimental: […] HCV replicon cell line, AVA5 (sub-genomic CON1, genotype 1b) (Blight et al., 2000) maintained as sub-confluent cultures on 96-well plates as previously described (Okuse et al., 2005). Antiviral activity was determined by blot hybridization analysis of intracellular HCV RNA (normalized to the level of cellular B-actin RNA in each culture sample) and cytotoxicity was assessed by neutral red dye uptake after 3 days of treatment. Additional studies were performed using Huh7 cells containing another HCV replicon, H/FL-Neo, a genotype 1a full length construct (Blight et al., 2003). For studies involving human serum, standard culture medium (which contains 10% fetal bovine serum) and assay conditions were maintained.
(§1) EC50, EC90 and CC50 values (±standard deviations [S.D.]) were calculated by linear regression analysis using data combined from all treated cultures (Korba and Gerin, 1992; Okuse et al., 2005). […] Selectivity index (S.I.) was calculated as CC50/EC90 for HBV assays and CC50/EC50 for HCV assays. EC90 values were used for calculation of the S.I. in HBV assays since at least a […] depression of HBV DNA levels is typically required to achieve statistical significance in this assay system (Korba and Gerin, 1992). For combination treatments, EC50, EC90, CC50 and S.I. are presented for the first compound listed. The molar ratio of the compounds in each combination is also indicated.

[3] = Cytotoxicity by neutral red dye uptake in Huh7 cells containing H/FL-Neo; assay type: cell-based; settings: human; Genotype 1a replicon
[4] = tested on: HBV RNA; assay: Intracellular HBV RNA by quantitative northern blot hybridization in 2.2.15 cells; assay type: cell-based, Hepatitis B Virus
Experimental: (§2) Cultures of 2.2.15 cells were treated under standard procedures and semi-quantitative EIA-based analysis of HBV proteins was performed as previously described (Korba and Gerin, 1995), except that HBeAg was analyzed ETI-EBK Plus® (DiaSorin, Inc., Stillwater, Minn. USA). Samples were diluted (2 to 10-fold) to bring levels into the dynamic response ranges of the EIA's. HBsAg, and HBeAg were analyzed from culture medium samples and HBcAg was analyzed from intracellular lysates. Intracellular HBV RNA was assessed by quantitative northern blot hybridization (Korba and Gerin, 1995).

[5] = tested on: 2.2.15 cells; assay: Cytotoxicity by neutral red dye uptake in 2.2.15 cells; settings: rapidly dividing cultures
Experimental: (§3) HBV antiviral assays were conducted as previous described (Korba and Gerin, 1992).
as §1

[6] = as above; settings: human
Experimental: as §3, §1

[7] = tested on: HCV replicon, sub-genomic CON1, genotype 1b; assay: 3-day HCV replicon assay in AVA5 cells (intracellular HCV RNA, blot hybridization); assay type: cell-based, Hepatitis C Virus; settings: Hepatitis C virus, Ava5, 72 h; Genotype 1b replicon, 3 days; first compound listed for combinations
Experimental: (§4) Antiviral activity of test compounds was assessed in a 3-day assay using the stably-expressing HCV replicon cell line, AVA5 (sub-genomic CON1, genotype 1b) (Blight et al., 2000) maintained as sub-confluent cultures on 96-well plates as previously described (Okuse et al., 2005). Antiviral activity was determined by blot hybridization analysis of intracellular HCV RNA (normalized to the level of cellular B-actin RNA in each culture sample) and cytotoxicity was assessed by neutral red dye uptake after 3 days of treatment. Additional studies were performed using Huh7 cells containing another HCV replicon, H/FL-Neo, a genotype 1a full length construct (Blight et al., 2003). For studies involving human serum, standard culture medium (which contains 10% fetal bovine serum) and assay conditions were maintained.
as §1

[8] = tested on: Wild-type HBV; assay: 5-day transient transfection assay in Huh7 cells, intracellular HBV RI by Southern blot; assay type: cell-based, Hepatitis B Virus; settings: Hepatitis B virus, Huh-7
[9] = tested on: HBV; assay: HBV antiviral assay in confluent 2.2.15 cell cultures (HBV DNA, quantitative blot hybridization); assay type: cell-based, Hepatitis B Virus; settings: Hepatitis B virus
Experimental: EC50, EC90 and CC50 values (±standard deviations [S.D.]) were calculated by linear regression analysis using data combined from all treated cultures (Korba and Gerin, 1992; Okuse et al., 2005). […] Selectivity index (S.I.) was calculated as CC50/EC90 for HBV assays and CC50/EC50 for HCV assays. EC90 values were used for calculation of the S.I. in HBV assays since at least a 3-fold depression of HBV DNA levels is typically required to achieve statistical significance in this assay system (Korba and Gerin, 1992).

[10] = tested on: HBeAg; assay: Semi-quantitative EIA of HBV proteins in 2.2.15 culture medium; assay type: cell-based, Hepatitis B Virus
Experimental: as §2

[11] = tested on: HBsAg; assay: as above; assay type: cell-based, Hepatitis B Virus
Experimental: as §2

[12] = tested on: HBV Mutant L180M/M204V; assay: 5-day transient transfection assay in Huh7 cells, intracellular HBV RI by Southern blot; assay type: cell-based, Hepatitis B Virus; settings: Hepatitis B virus, Huh-7
Experimental: (§5) Activity against LMV-resistant (Allen et al., 1998) and ADV-resistant (Angus et al., 2003) HBV mutants was performed in a 5-day assay using a transient transfection method as previously described (Iyer et al., 2004). Antiviral activity was determined by quantitative Southern blot hybridization of intracellular HBV DNA replication intermediates (HBV RI).

[13] = tested on: HBV Mutant N236T; assay: as above; assay type: cell-based, Hepatitis B Virus; settings: Hepatitis B virus, Huh-7
Experimental: as §5

[14] = tested on: HBV Mutant M204I; assay: as above; assay type: cell-based, Hepatitis B Virus; settings: Hepatitis B virus, Huh-7
Experimental: as §5

[15] = tested on: HBV Mutant M204V; assay: as above; assay type: cell-based, Hepatitis B Virus; settings: Hepatitis B virus, Huh-7
Experimental: as §5

[16] = tested on: HBV Mutant L180M; assay: as above; assay type: cell-based, Hepatitis B Virus; settings: Hepatitis B virus, Huh-7
Experimental: as §5

[17] = oral 500 mg tablet; cited from earlier work
[18] = tested on: HCV replicon H/FL-Neo, genotype 1a full length; assay: HCV replicon assay in Huh7 cells containing H/FL-Neo; assay type: cell-based, Hepatitis C Virus
Experimental: as §4, §1

[19] = tested on: HBcAg; assay: Semi-quantitative EIA of HBV proteins in 2.2.15 intracellular lysates; assay type: cell-based, Hepatitis B Virus
Experimental: as §2

[20] = tested on: HCV replicon genotype 1B; assay: Secondary HCV replicon cell assay, genotype 1B; assay type: cell-based, Hepatitis C Virus
From the text: (§6) Table 10 presents data from the secondary HCV replicon cell assays using genotypes 1B and 1A.

[21] = tested on: HCV replicon cells; assay: Primary HCV replicon cell assay, cytotoxicity; settings: primary assay
Experimental: as §4, §1

[22] = tested on: HCV replicon; assay: Primary HCV replicon cell assay; assay type: cell-based, Hepatitis C Virus
Experimental: as §4, §1

[23] = tested on: HCV replicon cells, genotype 1A; assay: Secondary HCV replicon cell assay, genotype 1A, cytotoxicity; assay type: cell-based
From the text: as §6

[24] = tested on: HCV replicon cells, genotype 1B; assay: Secondary HCV replicon cell assay, genotype 1B, cytotoxicity; assay type: cell-based
From the text: as §6

[25] = tested on: HCV replicon genotype 1A; assay: Secondary HCV replicon cell assay, genotype 1A; assay type: cell-based, Hepatitis C Virus
From the text: as §6

[26] = Hepatitis C virus, Huh-7, Genotype 1a replicon

## CC(=O)Oc1ccccc1C(=O)Nc1ncc([N+](=O)[O-])s1 [NTZ, nitazoxanide]
[1]
  CC50 at 3 days: 38000 ± 1800 nM
[2]
  EC50: 200 ± 20 nM
  EC90: 920 ± 100 nM
[3]
  CC50 at 3 days: 49000 ± 1500 nM
[4]
  effect on intracellular HBV RNA (Northern blot hybridization): did not induce a reduction
[5]
  cytotoxicity in rapidly dividing cultures of 2.2.15 cells: 20 ± 1.3 µM
[6]
  CC50 at 9 days: > 100000 nM
[7]
  EC50: 210 ± 30 nM
  EC90: 930 ± 110 nM
[8]
  EC50: 210 ± 30 nM
[8]; Wild-type, Huh7 transient transfection
  EC90: 770 ± 90 nM
[9]; read-out: Intracellular HBV RI EC50
  EC50: 590 ± 70 nM
[9]; 2.2.15 cells, Table 3 experiment, read-out: HBV R.I. EC50
  EC50: 730 ± 60 nM
[9]; 2.2.15 cells, Table 3 experiment, read-out: HBV R.I. EC90
  EC90: 2200 ± 300 nM
[9]; 2.2.15 cells, Table 3 experiment, read-out: Virion production EC50
  EC50: 190 ± 20 nM
[9]; 2.2.15 cells, Table 3 experiment, read-out: Virion production EC90
  EC90: 580 ± 40 nM
[9]; 2.2.15 cells, nine daily doses, read-out: Extracellular virion DNA EC50
  EC50: 120 ± 20 nM
[10]; read-out: HBeAg EC50, 2.2.15 cells
  EC50: 260 ± 20 nM
[10]; read-out: HBeAg EC90, 2.2.15 cells
  EC90: 1300 ± 100 nM
[11]; read-out: HBsAg EC50, 2.2.15 cells
  EC50: 220 ± 30 nM
[11]; read-out: HBsAg EC90, 2.2.15 cells
  EC90: 1000 ± 100 nM
[12]
  EC50: 180 ± 20 nM
  EC90: 720 ± 90 nM
[13]
  EC50: 280 ± 30 nM
  EC90: 850 ± 100 nM
[14]
  EC50: 310 ± 50 nM
  EC90: 1000 ± 200 nM
[15]
  EC50: 150 ± 20 nM
  EC90: 700 ± 80 nM
[16]
  EC50: 230 ± 30 nM
  EC90: 800 ± 90 nM
[17]
  detection in plasma: not detected
[18]
  antiviral activity against full length genotype 1a replicon compared with AVA5 cells (genotype 1b): equivalent
[18]; [26]
  EC50: 330 ± 50 nM
  EC90: 1100 ± 100 nM
[19]; read-out: HBcAg EC50, 2.2.15 cells
  EC50: 1100 ± 100 nM
[19]; read-out: HBcAg EC90, 2.2.15 cells
  EC90: 3000 ± 200 nM

## CS(=O)(=O)c1cnc(NC(=O)c2ccccc2O)s1 [Compound 75]
[20]
  EC90: 7900 nM
[21]
  CC50: 53000 nM
[22]
  EC50: 2100 nM
  EC90: 8100 nM
[23]
  CC50: 56000 nM
[24]
  CC50: 54000 nM
[25]
  EC50: 2800 nM
  EC90: 8500 nM

From patent US8895752B2, “Alkylsulfonyl-substituted thiazolide compounds” (priority 2007, dated 2014)
